Columns and labels:
Assay in all cases: relative viability (nuclei count vs DMSO), 5 days (fraction); higher = more cells survive
NCI-H2342 = system: NCI-H2342
Outline: (§1)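 Relative viability is defined as nuclei in treated wells over nuclei in vehicle wells. Duplicate plates were run and medians reported. Lung cancer cell lines in 1536-well plates were dosed by pin tool one day after seeding, with one drug or with a fixed anchor-drug dose plus five library-drug doses (not always all listed) in √10 steps, and nuclei were counted after 5 days.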

NCI-H1793 = system: NCI-H1793
Outline: as §1

EMC-BAC-2 = system: EMC-BAC-2
Outline: as §1

NCI-H2228 = system: NCI-H2228
Outline: as §1

EKVX = system: EKVX
Outline: as §1

H3255 = system: H3255
Outline: as §1

LXF-289 = system: LXF-289
Outline: as §1

NCI-H2347 = system: NCI-H2347
Outline: as §1

NCI-H1755 = system: NCI-H1755
Outline: as §1

NCI-H1395 = system: NCI-H1395
Outline: as §1

NCI-H2085 = system: NCI-H2085
Outline: as §1

LK-2 = system: LK-2
Outline: as §1

NCI-H1437 = system: NCI-H1437
Outline: as §1

LC-2-ad = system: LC-2-ad
Outline: as §1

NCI-H1944 = system: NCI-H1944
Outline: as §1

NCI-H522 = system: NCI-H522
Outline: as §1

CAL-12T = system: CAL-12T
Outline: as §1

NCI-H2087 = system: NCI-H2087
Outline: as §1

NCI-H1915 = system: NCI-H1915
Outline: as §1

SK-LU-1 = system: SK-LU-1
Outline: as §1

PC-3 [JPC-3] = system: PC-3 [JPC-3]
Outline: as §1

SK-MES-1 = system: SK-MES-1
Outline: as §1

NCI-H1651 = system: NCI-H1651
Outline: as §1

COR-L 105 = system: COR-L 105
Outline: as §1

NCI-H661 = system: NCI-H661
Outline: as §1

Compound: CCCCCCCCCCCC1=C(O)C(=O)C=C(O)C1=O [Embelin] + CC(=O)c1c(C)c2cnc(Nc3ccc(N4CCNCC4)cn3)nc2n(C2CCCC2)c1=O [Palbociclib] (partner 0.5 µM)
- relative viability (NCI-H2342; first compound 0.08 µM): 0.54
- relative viability (NCI-H2342; first compound 0.8 µM): 0.514
- relative viability (NCI-H2342; first compound 2.53 µM): 0.542
- relative viability (NCI-H2342; first compound 8 µM): 0.439
- relative viability (NCI-H1793; first compound 0.08 µM): 0.317
- relative viability (NCI-H1793; first compound 0.8 µM): 0.363
- relative viability (NCI-H1793; first compound 2.53 µM): 0.411
- relative viability (NCI-H1793; first compound 8 µM): 0.363
- relative viability (EMC-BAC-2; first compound 0.08 µM): 0.511
- relative viability (EMC-BAC-2; first compound 0.8 µM): 0.547
- relative viability (EMC-BAC-2; first compound 2.53 µM): 0.536
- relative viability (EMC-BAC-2; first compound 8 µM): 0.485
- relative viability (NCI-H2228; first compound 0.08 µM): 0.824
- relative viability (NCI-H2228; first compound 0.8 µM): 0.865
- relative viability (NCI-H2228; first compound 2.53 µM): 0.68
- relative viability (NCI-H2228; first compound 8 µM): 0.834
- relative viability (EKVX; first compound 0.08 µM): 0.411
- relative viability (EKVX; first compound 0.8 µM): 0.432
- relative viability (EKVX; first compound 2.53 µM): 0.466
- relative viability (EKVX; first compound 8 µM): 0.394
- relative viability (H3255; first compound 0.08 µM): 0.324
- relative viability (H3255; first compound 0.8 µM): 0.347
- relative viability (H3255; first compound 2.53 µM): 0.328
- relative viability (H3255; first compound 8 µM): 0.295
- relative viability (LXF-289; first compound 0.08 µM): 0.594
- relative viability (LXF-289; first compound 0.8 µM): 0.59
- relative viability (LXF-289; first compound 2.53 µM): 0.649
- relative viability (LXF-289; first compound 8 µM): 0.613
- relative viability (NCI-H2347; first compound 0.08 µM): 0.47
- relative viability (NCI-H2347; first compound 0.8 µM): 0.387
- relative viability (NCI-H2347; first compound 2.53 µM): 0.451
- relative viability (NCI-H2347; first compound 8 µM): 0.389
- relative viability (NCI-H1755; first compound 0.08 µM): 0.471
- relative viability (NCI-H1755; first compound 0.8 µM): 0.483
- relative viability (NCI-H1755; first compound 2.53 µM): 0.376
- relative viability (NCI-H1755; first compound 8 µM): 0.427
- relative viability (NCI-H1395; first compound 0.08 µM): 0.599
- relative viability (NCI-H1395; first compound 0.8 µM): 0.623
- relative viability (NCI-H1395; first compound 2.53 µM): 0.65
- relative viability (NCI-H1395; first compound 8 µM): 0.563
- relative viability (NCI-H2085; first compound 0.08 µM): 0.441
- relative viability (NCI-H2085; first compound 0.8 µM): 0.464
- relative viability (NCI-H2085; first compound 2.53 µM): 0.502
- relative viability (NCI-H2085; first compound 8 µM): 0.469
- relative viability (LK-2; first compound 0.08 µM): 0.647
- relative viability (LK-2; first compound 0.8 µM): 0.753
- relative viability (LK-2; first compound 2.53 µM): 0.806
- relative viability (LK-2; first compound 8 µM): 0.702
- relative viability (NCI-H1437; first compound 0.08 µM): 0.313
- relative viability (NCI-H1437; first compound 0.8 µM): 0.3
- relative viability (NCI-H1437; first compound 2.53 µM): 0.391
- relative viability (NCI-H1437; first compound 8 µM): 0.335
- relative viability (LC-2-ad; first compound 0.08 µM): 0.433
- relative viability (LC-2-ad; first compound 0.8 µM): 0.442
- relative viability (LC-2-ad; first compound 2.53 µM): 0.535
- relative viability (LC-2-ad; first compound 8 µM): 0.516
- relative viability (NCI-H1944; first compound 0.08 µM): 0.346
- relative viability (NCI-H1944; first compound 0.8 µM): 0.405
- relative viability (NCI-H1944; first compound 2.53 µM): 0.381
- relative viability (NCI-H1944; first compound 8 µM): 0.306
- relative viability (NCI-H522; first compound 0.08 µM): 1.09
- relative viability (NCI-H522; first compound 0.8 µM): 1.21
- relative viability (NCI-H522; first compound 2.53 µM): 1.01
- relative viability (NCI-H522; first compound 8 µM): 0.983
- relative viability (CAL-12T; first compound 0.08 µM): 0.483
- relative viability (CAL-12T; first compound 0.8 µM): 0.538
- relative viability (CAL-12T; first compound 2.53 µM): 0.331
- relative viability (CAL-12T; first compound 8 µM): 0.553
- relative viability (NCI-H2087; first compound 0.08 µM): 0.236
- relative viability (NCI-H2087; first compound 0.8 µM): 0.227
- relative viability (NCI-H2087; first compound 2.53 µM): 0.266
- relative viability (NCI-H2087; first compound 8 µM): 0.248
- relative viability (NCI-H1915; first compound 0.08 µM): 0.543
- relative viability (NCI-H1915; first compound 0.8 µM): 0.56
- relative viability (NCI-H1915; first compound 2.53 µM): 0.583
- relative viability (NCI-H1915; first compound 8 µM): 0.522
- relative viability (SK-LU-1; first compound 0.08 µM): 0.419
- relative viability (SK-LU-1; first compound 0.8 µM): 0.41
- relative viability (SK-LU-1; first compound 2.53 µM): 0.621
- relative viability (SK-LU-1; first compound 8 µM): 0.274
- relative viability (PC-3 [JPC-3]; first compound 0.08 µM): 0.518
- relative viability (PC-3 [JPC-3]; first compound 0.8 µM): 0.543
- relative viability (PC-3 [JPC-3]; first compound 2.53 µM): 0.571
- relative viability (PC-3 [JPC-3]; first compound 8 µM): 0.511
- relative viability (SK-MES-1; first compound 0.08 µM): 0.366
- relative viability (SK-MES-1; first compound 0.8 µM): 0.374
- relative viability (SK-MES-1; first compound 2.53 µM): 0.321
- relative viability (SK-MES-1; first compound 8 µM): 0.297
- relative viability (NCI-H1651; first compound 0.08 µM): 0.503
- relative viability (NCI-H1651; first compound 0.8 µM): 0.543
- relative viability (NCI-H1651; first compound 2.53 µM): 0.547
- relative viability (NCI-H1651; first compound 8 µM): 0.488
- relative viability (COR-L 105; first compound 0.08 µM): 0.435
- relative viability (COR-L 105; first compound 0.8 µM): 0.399
- relative viability (COR-L 105; first compound 2.53 µM): 0.405
- relative viability (COR-L 105; first compound 8 µM): 0.439
- relative viability (NCI-H661; first compound 0.08 µM): 0.405
- relative viability (NCI-H661; first compound 0.8 µM): 0.419
- relative viability (NCI-H661; first compound 2.53 µM): 0.385
- relative viability (NCI-H661; first compound 8 µM): 0.364

Source: the supplement of paper PMC10307832
